# Source: US5670510A, “Pyridyl substituted spirodienes for the treatment of inflammation” (G. D. Searle & Co., priority 1996, dated 1997)
# Columns and labels:
# [1] = system: cyclooxygenase II; settings: literature: Meade et al; Futaki et al; cited from earlier work
# [2] = system: carrageenan-induced foot edema; test: Rat Carrageenan Foot Pad Edema Test; format: in vivo, Male Sprague-Dawley rats; settings: oral, 3 h after carrageenan injection
# Protocol: Rat Carrageenan Foot Pad Edema Test
# The carrageenan foot edema test was performed with materials, reagents and procedures essentially as described by Winter, et al. (Proc. Soc. Exp. Biol. Med., 11, 544 (1962)). Male Sprague-Dawley rats were selected in each group so that the average body weight was as close as possible. Rats were fasted with free access to water for over sixteen hours prior to the test. The rats were dosed orally (1 mL) with compounds suspended in vehicle containing 0.5% methylcellulose and 0.025% surfactant, or with vehicle alone. One hour later a subplantar injection of 0.1 mL of 1% solution of carrageenan/sterile 0.9% saline was administered and the volume of the injected foot was measured with a displacement plethysmometer connected to a pressure transducer with a digital indicator. Three hours after the injection of the carrageenan, the volume of the foot was again measured. The average foot swelling in a group of drug-treated animals was compared with that of a group of placebo-treated animals and the percentage inhibition of edema was determined (Ottertess and Bliven, Laboratory Models for Testing NSAIDs, in Non-steroidal Anti-inflammatory Drugs, (J. Lombardino, ed. 1985)).
# [3] = system: carrageenan-induced hyperalgesic foot withdrawal; test: Rat Carrageenan-induced Analgesia Test; format: in vivo, Male Sprague-Dawley rats; settings: oral, inhibition of hyperalgesic foot withdrawal 3 h after carrageenan
# Protocol: Rat Carrageenan-induced Analgesia Test
# The rat carrageenan analgesia test was performed with materials, reagents and procedures essentially as described by Hargreaves, et al. (Pain, 32, 77 (1988)). Male Sprague-Dawley rats were treated as previously described for the Carrageenan Foot Pad Edema test. Three hours after the injection of the carrageenan, the rats were placed in a special plexiglass container with a transparent floor having a high intensity lamp as a radiant heat source, positionable under the floor. After an initial twenty minute period, thermal stimulation was begun on either the injected foot or on the contralateral uninjected foot. A photoelectric cell turned off the lamp and timer when light was interrupted by paw withdrawal. The time until the rat withdraws its foot was then measured. The withdrawal latency in seconds was determined for the control and drug-treated groups, and percent inhibition of the hyperalgesic foot withdrawal determined.
# [4] = system: COX I; settings: read-out: COX I ID50; arachidonic acid 10 μM; pH 8.0; pre-incubated 10-20 minutes
# Protocol: Recombinant baculoviruses were isolated by transfecting 4 μg of baculovirus transfer vector DNA into SF9 insect cells ([…]) along with 200 ng of linearized baculovirus plasmid DNA by the calcium phosphate method. […] Exp. Station Bull. 1555 (1987). Recombinant viruses were purified by three rounds of plaque purification and high titer (10E7-10E8 pfu/ml) stocks of virus were prepared. For large scale production, SF9 insect cells were infected in 10 liter fermentors (0.5×10^6 /ml) with the recombinant baculovirus stock such that the multiplicity of infection was 0.1. After 72 hours the cells were centrifuged and the cell pellet homogenized in Tris/Sucrose (50 mM: 25%, pH 8.0) containing 1% 3-[(3-cholamidopropyl)dimethylammonio]-1-propanesulfonate (CHAPS). The homogenate was centrifuged at 10,000×G for 30 minutes, and the resultant supernatant was stored at -80° C. before being assayed for COX activity.
# COX activity was assayed as PGE2 formed/μg protein/time using an ELISA to detect the prostaglandin released. CHAPS-solubilized insect cell membranes containing the appropriate COX enzyme were incubated in a potassium phosphate buffer (50 mM, pH 8.0) containing epinephrine, phenol, and heme with the addition of arachidonic acid (10 μM). […] The PGE2 formed was measured by standard ELISA technology (Cayman Chemical).
# [5] = literature: Futaki et al; cited from earlier work
SMILES,inhibition of COX II enzyme [1],RAT PAW EDEMA % Inhibition @ 30 mg/kg body weight [2] [%],ANALGESIA % Inhibition @ 10 mg/kg body weight [3] [%],IC50 [4] [nM],gastric side effects [5]
COc1ccc2cc(CC(=O)O)ccc2c1 [6-methoxy-2-napthylacetic acid],selectively inhibit the COX II enzyme,,,,
"CS(=O)(=O)c1ccc(C2=CC3(C=C2c2ccc(F)cc2)CC3)cc1 [Example 1, 5-(4-Fluorophenyl)-6-[4-(methylsulfonyl)phenyl]spiro[2.4]hepta-4,6-diene]",,49,94,1300,
CS(=O)(=O)Nc1ccc([N+](=O)[O-])cc1OC1CCCCC1 [N-(2-cyclohexyloxy-4-nitrophenyl)methanesulfonamide],inhibits cyclooxygenase II,,,,lacks gastric side effects
